According to PubChem BioAssay (NCI):
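Abbreviation: GI50, concentration required for 50% inhibition of growth. TGI: total growth inhibition.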

How the values were obtained:
Experiment in all cases: NCI tumour cell line growth inhibition, 384-well format
[1] = tested on: 786-0 renal
[2] = tested on: A498 renal
[3] = tested on: A549 NSCLC
[4] = tested on: ACHN renal
[5] = tested on: BT-549 breast
[6] = tested on: CAKI-1 renal
[7] = tested on: CCRF-CEM leukemia
[8] = tested on: DU-145 prostate
[9] = tested on: EKVX NSCLC
[10] = tested on: HCT-116 colon
[11] = tested on: HCT-15 colon
[12] = tested on: HL-60(TB) leukemia
[13] = tested on: HS 578T breast
[14] = tested on: IGROV1 ovarian
[15] = tested on: K-562 leukemia
[16] = tested on: KM12 colon
[17] = tested on: LOX IMVI melanoma
[18] = tested on: M14 melanoma
[19] = tested on: MCF7 breast
[20] = tested on: MDA-MB-468 breast
[21] = tested on: MOLT-4 leukemia
[22] = tested on: NCI-H23 lung
[23] = tested on: NCI-H322M lung
[24] = tested on: NCI-H522 lung
[25] = tested on: NCI/ADR-RES ovarian
[26] = tested on: OVCAR-3 ovarian
[27] = tested on: OVCAR-4 ovarian
[28] = tested on: OVCAR-5 ovarian
[29] = tested on: OVCAR-8 ovarian
[30] = tested on: PC-3 prostate
[31] = tested on: RPMI-8226 leukemia
[32] = tested on: RXF 393 renal
[33] = tested on: SF-268 CNS
[34] = tested on: SF-539 CNS
[35] = tested on: SK-MEL-2 melanoma
[36] = tested on: SK-MEL-28 melanoma
[37] = tested on: SK-MEL-5 melanoma
[38] = tested on: SK-OV-3 ovarian
[39] = tested on: SN12C renal
[40] = tested on: SNB-19 CNS
[41] = tested on: SNB-75 CNS
[42] = tested on: SR leukemia
[43] = tested on: SW-620 colon
[44] = tested on: TK-10 renal
[45] = tested on: UACC-257 melanoma
[46] = tested on: UACC-62 melanoma
[47] = tested on: UO-31 renal

For `C=CCN(/C=C1\C(=O)O[C@H](COC)[C@@]2(C)C1=C(O)C(=O)C1=C2[C@H](OC(C)=O)C[C@]2(C)C(=O)CC[C@@H]12)CC=C`, the GI50 [1] was 4.45 µM, the TGI [1] was 28.5 µM and the GI50 [2] was 390 nM. The TGI [2] was 5.3 µM, the GI50 [3] was 1110 nM and the TGI [3] was 27.6 µM. For the same molecule, the GI50 [4] was 4.71 µM, the TGI [4] was greater than 100 µM and the GI50 [5] was 553 nM. For the same molecule, the TGI [5] was 9.02 µM, the GI50 [6] was 2750 nM and the TGI [6] was greater than 100 µM. The GI50 [7] was 723 nM, the TGI [7] was 4.53 µM and the GI50 [8] was 4.41 µM. It also gave a TGI [8] of 59.7 µM, a GI50 [9] of 504 nM and a TGI [9] of 13.6 µM. For the same molecule, the GI50 [10] was 4.61 µM, the TGI [10] was 31.4 µM and the GI50 [11] was 2980 nM. The TGI [11] was 97.2 µM, the GI50 [12] was 156 nM and the TGI [12] was 983 nM. For the same molecule, the GI50 [13] was 1150 nM, the TGI [13] was 6.93 µM and the GI50 [14] was 406 nM. For the same molecule, the TGI [14] was 5.26 µM, the GI50 [15] was 17.6 µM and the TGI [15] was greater than 100 µM. For the same molecule, the GI50 [16] was 2660 nM, the TGI [16] was 96.3 µM and the GI50 [17] was 5.49 µM. The TGI [17] was 39.1 µM, the GI50 [18] was 2820 nM and the TGI [18] was 30.5 µM. For the same molecule, the GI50 [19] was 441 nM, the TGI [19] was 19.4 µM and the GI50 [20] was 76.4 nM. The TGI [20] was 2090 nM, the GI50 [21] was 333 nM and the TGI [21] was 2020 nM. It also gave a GI50 [22] of 4.35 µM, a TGI [22] of 33.8 µM and a GI50 [23] of 1210 nM. It also gave a TGI [23] of 23.3 µM, a GI50 [24] of 2080 nM and a TGI [24] of 14.4 µM. The GI50 [25] was 8.83 µM, the TGI [25] was greater than 100 µM and the GI50 [26] was 1160 nM. For the same molecule, the TGI [26] was 12.2 µM, the GI50 [27] was 787 nM and the TGI [27] was 33.5 µM. For the same molecule, the GI50 [28] was 3.62 µM, the TGI [28] was 42.9 µM and the GI50 [29] was 3.85 µM. The TGI [29] was greater than 100 µM, the GI50 [30] was 648 nM and the TGI [30] was 18 µM. For the same molecule, the GI50 [31] was 657 nM, the TGI [31] was 3.16 µM and the GI50 [32] was 82.8 nM. The TGI [32] was 650 nM, the GI50 [33] was 1820 nM and the TGI [33] was 19.9 µM. The GI50 [34] was 7.45 µM, the TGI [34] was greater than 100 µM and the GI50 [35] was 2360 nM. For the same molecule, the TGI [35] was 12.3 µM, the GI50 [36] was 1590 nM and the TGI [36] was 19.7 µM. The GI50 [37] was 2960 nM, the TGI [37] was 14.7 µM and the GI50 [38] was 680 nM. For the same molecule, the TGI [38] was 15.3 µM, the GI50 [39] was 2080 nM and the TGI [39] was greater than 100 µM. For the same molecule, the GI50 [40] was 13.7 µM, the TGI [40] was greater than 100 µM and the GI50 [41] was 1570 nM. For the same molecule, the TGI [41] was 10.1 µM, the GI50 [42] was 1220 nM and the TGI [42] was 2510 nM. The GI50 [43] was 7.45 µM, the TGI [43] was greater than 100 µM and the GI50 [44] was 1190 nM. It also gave a TGI [44] of 15.2 µM, a GI50 [45] of 4.01 µM and a TGI [45] of 43.9 µM. It also gave a GI50 [46] of 890 nM, a TGI [46] of 8.77 µM and a GI50 [47] of 2810 nM. The TGI [47] was greater than 100 µM.
